Key:
Format in all cases: cell-based
[1] = system: RKO p27 or p21 induced (arrested) colon adenocarcinoma cells; test: Alamar Blue cell viability assay, RKO p27 or p21 induced (arrested); conditions: Homo sapiens, RKOp27, Table B2, cells arrested by Ponasterone A, 72 hours, read-out: −log EC50 RKO p27 or p21 induced (arrested) (converted)
Protocol: (§1) To determine the cell cycle specific mode of action, subclones of RKO colon adenocarcinoma cells (RKOp21 or RKOp27 as described by Schmidt et al. in Oncogene 19, 2423-2429; 2000) are seeded into 96 well flat bottom plates at a density of 16000 cells per well in a volume of 50 μl per well in DMEM growth medium with 10% FCS containing 10 μM Ponasterone A. 24 hours after seeding the 50 μl each of the compound dilutions in DMEM medium are added into each well of the 96-well plate. Each compound dilution is tested as triplicates. Wells containing untreated control cells are filled with 50 μl DMEM medium containing 1% DMSO. The cells are then incubated with the substances for 72 hours at 37° C. in a humidified atmosphere containing 5% carbon dioxide. To determine the viability of the cells, 10 μl of an Alamar Blue solution (Biosource) are added and the fluorescence is measured at an extinction of 544 nm and an emission of 590 nm. For the calculation of the cell viability the emission value from untreated cells is set as 100% viability and the emission rates of treated cells are set in relation to the values of untreated cells. Viabilities are expressed as % values. The Graphpad Prism program (GraphPad Software, Inc) is used for the calculation of EC50 values out of the obtained dose-response curves. Viability is compared of proliferating cells grown in the absence of the inducer Ponasterone A, versus viability of cells arrested by the expression of ectopic p27Kip1 induced by Ponasterone A.
(§2) Representative values for anti-proliferation/cytotoxicity [measured as −log EC50 (mol/l)] determined in the aforementioned assays follow from the following tables B1, B2 and B3, in which the numbers of the compounds correspond to the numbers of the examples.

[2] = system: RKO p27 or p21 uninduced (proliferating) colon adenocarcinoma cells; test: Alamar Blue cell viability assay, RKO p27 or p21 uninduced (proliferating); conditions: Homo sapiens, RKOp27, 72 h, Table B2, anti-proliferative/cytotoxic activity, read-out: −log EC50 RKO p27 or p21 uninduced (proliferating) (converted)
Protocol: The anti-proliferative/cytotoxic activity of the compounds described herein can be tested on subclones of RKO human colon adenocarcinoma cells (Schmidt et al., Oncogene 19, 2423-2429; 2000) using the Alamar Blue cell viability assay (described in O'Brien et al. Eur J Biochem 267, 5421-5426, 2000). The compounds are dissolved as 10 mM solutions in DMSO and subsequently diluted in semi-logarithmic steps. DMSO dilutions are further diluted 1:100 into Dulbecco's modified Eagle's medium (DMEM) containing 10% fetal calf serum to a final concentration twice as much as the final concentration in the test. RKO subclones are seeded into 96 well flat bottom plates at a density of 4000 cells per well in a volume of 50 μl per well. 24 hours after seeding the 50 μl each of the compound dilutions in DMEM medium are added into each well of the 96 well plate. Each compound dilution is tested as triplicates. Wells containing untreated control cells are filled with 50 μl DMEM medium containing 1% DMSO. The cells are then incubated with the substances for 72 hours at 37° C. in a humidified atmosphere containing 5% carbon dioxide. To determine the viability of the cells, 10 μl of an Alamar Blue solution (Biosource) are added and the fluorescence is measured at an extinction of 544 nm and an emission of 590 nm. For the calculation of the cell viability the emission value from untreated cells is set as 100% viability and the emission rates of treated cells are set in relation to the values of untreated cells. Viabilities are expressed as % values. The Graphpad Prism program is used for the calculation of EC50 values for anti-proliferative/cytotoxic activity out of the obtained dose-response curves.
as §1, §2

[3] = system: RKO p21 uninduced (proliferating) colon adenocarcinoma cells; test: Alamar Blue cell viability assay, RKO p21 uninduced (proliferating); conditions: Homo sapiens, Table B3, anti-proliferative/cytotoxic activity, 72 hours, read-out: −log EC50 RKO p21 uninduced (proliferating) (converted)
Outline: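 RKO p21 or p27 subclones grown without Ponasterone A, i.e. proliferating, exposed 24 h after seeding to semi-log compound dilutions in DMEM/10% FCS (1% DMSO controls) for 72 h at 37° C. Alamar Blue fluorescence (544/590 nm) read relative to untreated cells; EC50 from dose-response curves, given as −log EC50 (mol/l).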

Row | EC50 [1] [µM] | Compound | EC50 [2] [µM] | EC50 [3] [µM]
1 | ≥ 0.316 | COc1ccc2[nH]c3c(c2c1)C[C@@]1(C)C(=O)N(CCCCl)C(=O)N1[C@@H]3c1cccc(O)c1 (racemic) [Example 55, (3aSR,10RS)-2-(3-Chloro-propyl)-10-(3-hydroxy-phenyl)-6-methoxy-3a-methyl-3a,4,9,10-tetrahydro-2,9,10a-triaza-cyclopenta[b]fluorene-1,3-dione] | 0.0398 to 0.251 | 
2 | ≥ 0.316 | C[C@@]12Cc3c([nH]c4ccc(Cl)cc34)[C@@H](c3cccc(O)c3)N1C(=O)N(CCCCl)C2=O (racemic) [Example 57, (3aSR,10RS)-6-Chloro-2-(3-chloro-propyl)-10-(3-hydroxy-phenyl)-3a-methyl-3a,4,9,10-tetrahydro-2,9,10a-triaza-cyclopenta[b]fluorene-1,3-dione] | 0.0398 to 0.251 | 
3 | ≥ 3.16 | COc1ccc2[nH]c3c(c2c1)C[C@@]1(C)C(=O)N(CCCNC(C)C)C(=O)N1[C@@H]3c1cccc(O)c1 (racemic) [Example 67, (3aSR,10RS)-10-(3-Hydroxy-phenyl)-2-(3-isopropylamino-propyl)-6-methoxy-3a-methyl-3a,4,9,10-tetrahydro-2,9,10a-triaza-cyclopenta[b]fluorene-1,3-dione] | ≤ 0.0398 | 
4 | ≥ 3.16 | COc1ccc2[nH]c3c(c2c1)C[C@@]1(C)C(=O)N(CCN2CC=CCC2)C(=O)N1[C@@H]3c1cccc(O)c1 (racemic) [Example 68, (3aSR,10RS)-2-[2-(3,6-Dihydro-2H-pyridin-1-yl)-ethyl]-10-(3-hydroxy-phenyl)-6-methoxy-3a-methyl-3a,4,9,10-tetrahydro-2,9,10a-triaza-cyclopenta[b]fluorene-1,3-dione] | ≤ 0.0398 | 
5 | ≥ 3.16 | CCN(CC)CCN1C(=O)N2[C@H](c3cccc(O)c3)c3[nH]c4ccc(OC)cc4c3C[C@@]2(C)C1=O (racemic) [Example 69, (3aSR,10RS)-2-(2-Diethylamino-ethyl)-10-(3-hydroxy-phenyl)-6-methoxy-3a-methyl-3a,4,9,10-tetrahydro-2,9,10a-triaza-cyclopenta[b]fluorene-1,3-dione] | ≤ 0.0398 | 
6 | ≥ 3.16 | COc1ccc2[nH]c3c(c2c1)C[C@@]1(C)C(=O)N(CCN(C)C(C)C)C(=O)N1[C@@H]3c1cccc(O)c1 (racemic) [Example 70, (3aSR,10RS)-10-(3-Hydroxy-phenyl)-2-[2-(isopropyl-methyl-amino)-ethyl]-6-methoxy-3a-methyl-3a,4,9,10-tetrahydro-2,9,10a-triaza-cyclopenta[b]fluorene-1,3-dione] | ≤ 0.0398 | 
7 | ≥ 3.16 | COc1ccc2[nH]c3c(c2c1)C[C@@]1(C)C(=O)N(CCN2CCCCC2)C(=O)N1[C@@H]3c1cccc(O)c1 (racemic) [Example 71, (3aSR,10RS)-10-(3-Hydroxy-phenyl)-6-methoxy-3a-methyl-2-(2-piperidin-1-yl-ethyl)-3a,4,9,10-tetrahydro-2,9,10a-triaza-cyclopenta[b]fluorene-1,3-dione] | ≤ 0.0398 | 
8 | ≥ 3.16 | COc1ccc2[nH]c3c(c2c1)C[C@@]1(C)C(=O)N(CCNC(C)(C)C)C(=O)N1[C@@H]3c1cccc(O)c1 (racemic) [Example 72, (3aSR,10RS)-2-(2-tert-Butylamino-ethyl)-10-(3-hydroxy-phenyl)-6-methoxy-3a-methyl-3a,4,9,10-tetrahydro-2,9,10a-triaza-cyclopenta[b]fluorene-1,3-dione] | ≤ 0.0398 | 
9 | ≥ 3.16 | COc1ccc2[nH]c3c(c2c1)C[C@@]1(C)C(=O)N(CCNCC(F)F)C(=O)N1[C@@H]3c1cccc(O)c1 (racemic) [Example 73, (3aSR,10RS)-2-[2-(2,2-Difluoro-ethylamino)-ethyl]-10-(3-hydroxy-phenyl)-6-methoxy-3a-methyl-3a,4,9,10-tetrahydro-2,9,10a-triaza-cyclopenta[b]fluorene-1,3-dione] | 0.0398 to 0.251 | 
10 | ≥ 3.16 | COc1ccc2[nH]c3c(c2c1)C[C@@]1(C)C(=O)N(CCN2CCCCCC2)C(=O)N1[C@@H]3c1cccc(O)c1 (racemic) [Example 74, (3aSR,10RS)-2-(2-Azepan-1-yl-ethyl)-10-(3-hydroxy-phenyl)-6-methoxy-3a-methyl-3a,4,9,10-tetrahydro-2,9,10a-triaza-cyclopenta[b]fluorene-1,3-dione] | ≤ 0.0398 | 
11 | ≥ 3.16 | COc1ccc2[nH]c3c(c2c1)C[C@@]1(C)C(=O)N(CCN2CCC(C)CC2)C(=O)N1[C@@H]3c1cccc(O)c1 (racemic) [Example 75, (3aSR,10RS)-10-(3-Hydroxy-phenyl)-6-methoxy-3a-methyl-2-[2-(4-methyl-piperidin-1-yl)-ethyl]-3a,4,9,10-tetrahydro-2,9,10a-triaza-cyclopenta[b]fluorene-1,3-dione] | 0.0398 to 0.251 | 
12 | ≥ 3.16 | CNCCCN1C(=O)N2[C@H](c3cccc(O)c3)c3[nH]c4ccc(OC)cc4c3C[C@@]2(C)C1=O (racemic) [Example 76, (3aSR,10RS)-10-(3-Hydroxy-phenyl)-6-methoxy-3a-methyl-2-(3-methylamino-propyl)-3a,4,9,10-tetrahydro-2,9,10a-triaza-cyclopenta[b]fluorene-1,3-dione] | ≤ 0.0398 | 
13 | ≥ 3.16 | CCN(C)CCCN1C(=O)N2[C@H](c3cccc(O)c3)c3[nH]c4ccc(OC)cc4c3C[C@@]2(C)C1=O (racemic) [Example 77, (3aSR,10RS)-2-[3-(Ethyl-methyl-amino)-propyl]-10-(3-hydroxy-phenyl)-6-methoxy-3a-methyl-3a,4,9,10-tetrahydro-2,9,10a-triaza-cyclopenta[b]fluorene-1,3-dione] | ≤ 0.0398 | 
14 | ≥ 3.16 | CCN(CCO)CCN1C(=O)N2[C@H](c3cccc(O)c3)c3[nH]c4ccc(OC)cc4c3C[C@@]2(C)C1=O (racemic) [Example 78, (3aSR,10RS)-2-[2-[Ethyl-(2-hydroxy-ethyl)-amino]-ethyl}-10-(3-hydroxy-phenyl)-6-methoxy-3a-methyl-3a,4,9,10-tetrahydro-2,9,10a-triaza-cyclopenta[b]fluorene-1,3-dione] | ≤ 0.0398 | 
15 | ≥ 3.16 | CCN(CCOC)CCN1C(=O)N2[C@H](c3cccc(O)c3)c3[nH]c4ccc(OC)cc4c3C[C@@]2(C)C1=O (racemic) [Example 79, (3aSR,10RS)-2-[2-[Ethyl-(2-methoxy-ethyl)-amino]-ethyl}-10-(3-hydroxy-phenyl)-6-methoxy-3a-methyl-3a,4,9,10-tetrahydro-2,9,10a-triaza-cyclopenta[b]fluorene-1,3-dione] | ≤ 0.0398 | 
16 | ≥ 3.16 | C=CCN(C)CCN1C(=O)N2[C@H](c3cccc(O)c3)c3[nH]c4ccc(OC)cc4c3C[C@@]2(C)C1=O (racemic) [Example 80, (3aSR,10RS)-2-[2-(Allyl-methyl-amino)-ethyl]-10-(3-hydroxy-phenyl)-6-methoxy-3a-methyl-3a,4,9,10-tetrahydro-2,9,10a-triaza-cyclopenta[b]fluorene-1,3-dione] | ≤ 0.0398 | 
17 |  | CCN(CCCN1C(=O)N2[C@H](c3cccc(O)c3)c3[nH]c4ccc(OC)cc4c3C[C@@]2(C)C1=O)CCOC [Example 544, (3aS,10R)-2-{3-[Ethyl-(2-methoxy-ethyl)-amino]-propyl}-10-(3-hydroxy-phenyl)-6-methoxy-3a-methyl-3a,4,9,10-tetrahydro-2,9,10a-triaza-cyclopenta[b]fluorene-1,3-dione] |  | ≤ 0.0398
